Numbers after ± are expanded uncertainties.
Columns and labels:
[1] = mn = molality of the nth substance listed, in mol/kg; conditions: 298.15 K, 101 kPa, Liquid
[2] = cn = amount concentration of the nth substance listed, in mol/dm3; conditions: 298.15 K, 101 kPa, Liquid, Alternating current cell with electrodes

CC(C)C[C@H](NC(=O)CN)C(=O)O [glycyl-L-leucine] + O
mass density ([1]; Vibrating tube method, m1 = 0.01944): 1000.64 ± 4 kg/m3 | mass density ([1]; Vibrating tube method, m1 = 0.02958): 1001.13 ± 4 kg/m3 | mass density ([1]; Vibrating tube method, m1 = 0.0395): 1001.61 ± 4 kg/m3 | mass density ([1]; Vibrating tube method, m1 = 0.04928): 1002.08 ± 4 kg/m3 | mass density ([1]; Vibrating tube method, m1 = 0.057): 1002.44 ± 4 kg/m3 | mass density ([1]; Vibrating tube method, m1 = 0.07128): 1003.12 ± 4 kg/m3 | mass density ([1]; Vibrating tube method, m1 = 0.07696): 1003.39 ± 4 kg/m3 | mass density ([1]; Vibrating tube method, m1 = 0.09125): 1004.06 ± 4 kg/m3

CC(C)[C@H](NC(=O)CN)C(=O)O [glycyl-L-valine] + O
mass density ([1]; Vibrating tube method, m1 = 0.02261): 1000.88 ± 4 kg/m3 | mass density ([1]; Vibrating tube method, m1 = 0.03982): 1001.76 ± 4 kg/m3 | mass density ([1]; Vibrating tube method, m1 = 0.06223): 1002.9 ± 4 kg/m3 | mass density ([1]; Vibrating tube method, m1 = 0.07858): 1003.73 ± 4 kg/m3 | mass density ([1]; Vibrating tube method, m1 = 0.1017): 1004.89 ± 4 kg/m3 | mass density ([1]; Vibrating tube method, m1 = 0.1513): 1007.38 ± 4 kg/m3 | mass density ([1]; Vibrating tube method, m1 = 0.1799): 1008.77 ± 4 kg/m3

NCC(=O)NCC(=O)O [glycylglycine] + O
mass density ([1]; Vibrating tube method, m1 = 0.06033): 1003.05 ± 4 kg/m3 | mass density ([1]; Vibrating tube method, m1 = 0.08146): 1004.21 ± 4 kg/m3 | mass density ([1]; Vibrating tube method, m1 = 0.1018): 1005.33 ± 4 kg/m3 | mass density ([1]; Vibrating tube method, m1 = 0.1481): 1007.84 ± 4 kg/m3 | mass density ([1]; Vibrating tube method, m1 = 0.2504): 1013.33 ± 4 kg/m3 | mass density ([1]; Vibrating tube method, m1 = 0.2965): 1015.78 ± 4 kg/m3 | mass density ([1]; Vibrating tube method, m1 = 0.3421): 1018.08 ± 4 kg/m3

CCCC(=O)[O-].[Na+] [sodium butyrate] + O
mass density ([1]; m1 = 0.5): 1016.31 ± 0.31 kg/m3 | mass density ([1]; m1 = 1): 1033.73 ± 0.37 kg/m3 | mass density ([1]; m1 = 1.5): 1049.36 ± 0.42 kg/m3 | mass density ([1]; m1 = 2): 1064.03 ± 0.47 kg/m3 | molar conductivity ([2]; c1 = 0.0003234): 0.00796 ± 0.00013 S·m2/mol | molar conductivity ([2]; c1 = 0.001116): 0.00795 ± 0.00013 S·m2/mol | molar conductivity ([2]; c1 = 0.001273): 0.00794 ± 0.00013 S·m2/mol | molar conductivity ([2]; c1 = 0.001488): 0.00792 ± 0.00013 S·m2/mol | molar conductivity ([2]; c1 = 0.00188): 0.00788 ± 0.00013 S·m2/mol | molar conductivity ([2]; c1 = 0.002076): 0.00787 ± 0.00013 S·m2/mol | molar conductivity ([2]; c1 = 0.00243): 0.00784 ± 0.00013 S·m2/mol | molar conductivity ([2]; c1 = 0.003167): 0.00766 ± 0.00012 S·m2/mol | molar conductivity ([2]; c1 = 0.006298): 0.00753 ± 0.00012 S·m2/mol | molar conductivity ([2]; c1 = 0.008849): 0.00744 ± 0.00012 S·m2/mol | molar conductivity ([2]; c1 = 0.01124): 0.00737 ± 0.00012 S·m2/mol | molar conductivity ([2]; c1 = 0.01353): 0.00732 ± 0.00012 S·m2/mol | molar conductivity ([2]; c1 = 0.0155): 0.00727 ± 0.00012 S·m2/mol | molar conductivity ([2]; c1 = 0.01721): 0.00724 ± 0.00012 S·m2/mol | molar conductivity ([2]; c1 = 0.01916): 0.0072 ± 0.00012 S·m2/mol | molar conductivity ([2]; c1 = 0.02091): 0.00717 ± 0.00011 S·m2/mol | molar conductivity ([2]; c1 = 0.02284): 0.00714 ± 0.00011 S·m2/mol | molar conductivity ([2]; c1 = 0.02481): 0.0071 ± 0.00011 S·m2/mol | molar conductivity ([2]; c1 = 0.02647): 0.00707 ± 0.00011 S·m2/mol

O [water] + CC(C)C[C@H](NC(=O)CN)C(=O)O
mass density ([1]; Vibrating tube method, m2 = 0): 999.705 ± 4 kg/m3

O [water] + CC(C)[C@H](NC(=O)CN)C(=O)O
mass density ([1]; Vibrating tube method, m2 = 0): 999.705 ± 4 kg/m3

O [water] + NCC(=O)NCC(=O)O
mass density ([1]; Vibrating tube method, m2 = 0): 999.705 ± 4 kg/m3
